Patent publication US5858995A, “Benzofuran derivatives useful as inhibitors of bone resorption” (Fujisawa Pharmaceutical Co., Ltd., priority 1994, dated 1999)

System: PTH-induced bone resorption (calvariae)
Test: Bone organ culture: inhibition of PTH-induced bone resorption in rat calvariae
Assay type: cell-based
Conditions: Compound dose = 1 × 10^-5 (M); calvariae from Wistar rats, 10^-8 M human PTH (1-34); calcium in medium after six days
Experimental: Test (Bone organ culture)
Calvariae from Wistar rats were excised and cultured in wells of 12-well culture plates containing 2 ml of Dulbecco's modified minimum essential medium supplemented with 10% fetal bovine serum and 10^-8 M human parathyroid hormone fragment (1-34) [PTH] in the presence of the test compound. In control dishes, PTH was not added. Control and PTH control were exposed to an equivalent concentration of the vehicle. Six days later, the concentration of calcium in the medium was measured by methylxylenol blue method and the percentage of inhibition of PTH-induced bone resorption was calculated according to following formula. [formula] Test Result

Structure (SMILES): Cc1oc2c(NC(=O)c3c(Cl)cccc3Cl)cccc2c1C [Test Compound (1), 7-(2,6-Dichlorobenzoylamino)-2,3-dimethylbenzo[b]furan]
- Inhibition (%) of PTH-induced bone resorption: 100%
